Experimental data from ChEMBL document CHEMBL4665903, “Novel Tricyclic Compounds for Treating Bacterial Infection” (ACS Med Chem Lett, 2020).

How the values were obtained:
Format in all cases: functional, organism-based
Acinetobacter baumannii = experiment: Antibacterial activity against Acinetobacter baumannii ATCC 17978 assessed as bacterial growth inhibition and measured every 20 mins for 16 hrs
Staphylococcus aureus = experiment: Antibacterial activity against Staphylococcus aureus ATCC 29213 assessed as bacterial growth inhibition and measured every 20 mins for 16 hrs
Klebsiella pneumoniae = experiment: Antibacterial activity against Klebsiella pneumoniae ATCC 10031 assessed as bacterial growth inhibition and measured every 20 mins for 16 hrs

SMILES | IC50 (Acinetobacter baumannii) [nM] | IC50 (Staphylococcus aureus) [nM] | IC50 (Klebsiella pneumoniae) [nM]
CCNc1cc(F)c(F)c2c1[nH]c1ncc(-c3cnc(OC)nc3)c(N3CCC[C@@H](CN)C3)c12 | < 98 | 394 | < 98
CCNc1cc(F)cc2c1[nH]c1ncc(-c3cncc(C#N)c3)c(N3CC[C@@]4(C[C@H]4N)C3)c12 | < 98 | 863 | < 98
CNc1cc(F)c(F)c2c1[nH]c1ncc(-c3cnc(OC)nc3)c(N3CC[C@@]4(C[C@@H]4N)C3)c12 | < 98 | 184 | < 98
CNc1cc(F)c(F)c2c1[nH]c1ncc(-c3cnc4ccnn4c3)c(N3CC[C@H]4CN(C)C[C@H]43)c12 | < 98 | 369 | < 98
CCNc1cc(F)cc2c1[nH]c1ncc(-c3cncc(C#N)c3)c(N3CCC(F)(CN)C3)c12 (stereo not drawn) | < 98 | 312 | < 98
CNc1cc(F)c(F)c2c1[nH]c1ncc(-c3cncc(C#N)c3)c(N3CCCC(F)(CN)C3)c12 (stereo not drawn) | < 98 | 477 | < 98
